Key:
[1] = tested on: buccal tissue (EpiOral® tissues); conditions: for Average Apparent Permeability Coefficient Papp: donor pH 9.0, receiver pH 7.4, co-dosed 100 μM (caffeine 50 μM), n=6
[2] = tested on: buccal tissue (EpiOral® tissues); experiment: Permeability Enhancer Assay (Permeability Enhancer Test); conditions: pH 5.0; reference […]10^−6 cm/s
Excerpt: The donor side was not sampled and donor concentration was not measured.

in vitro = conditions: human

| SMILES | Average Apparent Permeability Coefficient Papp [1] | effect of the enhancer on the Papp of diphenhydramine versus reference Papp from the Permeability Test [2] | further results |
| --- | --- | --- | --- |
| Cn1c(=O)c2c(ncn2C)n(C)c1=O [Caffeine] | 33.3 ± 3.55 10^−6 cm/s | – | change of Papp at pH 9.0 compared to that at pH 5.0 and 7.4 ([1]; pH 9.0 vs pH 5.0 and 7.4): only moderately increased |
| CCCCCCCCCCCCCCCC[n+]1ccccc1 [Cetylpyridinium chloride] | – | higher | – |
| CC(C)NCC(O)COc1cccc2ccccc12 (stereo not drawn) [Propranolol] | 21.5 ± 4.66 10^−6 cm/s | – | Papp at 120 min, 100 μM (in vitro; pH 5): 1.45 ×10⁻⁶ cm/s; Papp at 120 min, 100 μM (in vitro; pH 7.4): 9.35 ×10⁻⁶ cm/s; Papp at 120 min, 100 μM (in vitro; pH 9): 21.5 ×10⁻⁶ cm/s |
| CCCCCCCCCCCCOS(=O)(=O)[O-].[Na+] [SDS, sodium dodecyl sulfate] | – | lower | – |
| CCCCCCCCCC(=O)[O-].[Na+] [Sodium Caprate] | – | higher | – |

From patent US10624845B2 (The Procter & Gamble Company, priority 2015, dated 2020)
